Values after ≈ are worked out from the molar mass of the structure shown. Active and inactive are the calls of the source. The calls are words filed in the database; no cut-off is given here.
Legend:
Acanthamoeba castellanii [1] = assay: Anti-amoebic activity against Acanthamoeba castellanii genotype T4 (ATCC 50492) trophozoites assessed as reduction in amoebae viability incubated for 24 hrs by trypan blue exclusion test; format: functional
Acanthamoeba castellanii [2] = assay: Anti-amoebic activity against Acanthamoeba castellanii genotype T4 (ATCC 50492) trophozoites infected in human HCT-116 cells assessed as protection against amoebae infection at 100 ug/ml amoebae pretreated with compound for 2 hrs followed by host cell infection and measured after 24 hrs by LDH assay; format: functional, organism-based; conditions: dose 100.0 µg/ml, time 26.0 hrs
Acanthamoeba castellanii [3] = assay: Anti-amoebic activity against Acanthamoeba castellanii genotype T4 (ATCC 50492) trophozoites assessed as reduction in amoebae viability at 100 ug/ml incubated for 24 hrs by trypan blue exclusion test; format: functional
Acanthamoeba castellanii [4] = assay: Anti-amoebic activity against Acanthamoeba castellanii genotype T4 (ATCC 50492) cysts assessed as reduction in excystation at 100 ug/ml incubated for 24 to 72 hrs by hemocytometer analysis; format: functional; conditions: time 24-72 hrs
Acanthamoeba castellanii [5] = assay: Anti-amoebic activity against Acanthamoeba castellanii genotype T4 (ATCC 50492) cysts assessed as reduction in excystation incubated for 24 to 72 hrs by hemocytometer analysis; format: functional; conditions: time 24-72 hrs
Acanthamoeba castellanii [6] = assay: Anti-amoebic activity against Acanthamoeba castellanii genotype T4 (ATCC 50492) trophozoites assessed as reduction in encystation at 100 ug/ml incubated for 48 hrs by hemocytometer analysis; format: functional, organism-based; conditions: dose 100.0 µg/ml
HCT-116 [7] = assay: Cytotoxicity against human HCT-116 cells at 5X excystation MIC50 concentration incubated for 24 hrs by LDH assay; format: toxicity, cell-based; conditions: hct-116, 24 h
HCT-116 [8] = assay: Cytotoxicity against human HCT-116 cells at 100 ug/ml incubated for 24 hrs by LDH assay; format: toxicity, cell-based; conditions: hct-116, 24 h, at 100 µg/mL

| SMILES | MIC50 (Acanthamoeba castellanii [1]) [µg/mL] | Activity (Acanthamoeba castellanii [2]) | inhibition at 100 µg/mL (Acanthamoeba castellanii [3]) [%] | inhibition at 100 µg/mL (Acanthamoeba castellanii [4]) [%] | MIC50 (Acanthamoeba castellanii [5]) [µg/mL] | Activity (Acanthamoeba castellanii [6]) | Activity (HCT-116 [7]) [%] | Activity (HCT-116 [8]) [%] |
| --- | --- | --- | --- | --- | --- | --- | --- | --- |
| CC(C)(C)c1ccc(-c2nnc(SCc3cccc(C(F)(F)F)c3)n2-c2ccccc2)cc1 | 239 (≈ 512 µM) | inactive | 17 | 78 | 85.5 (≈ 183 µM) | inactive |  |  |
| CC(C)c1ccc(-c2nnc(SCc3cccc(C(F)(F)F)c3)n2-c2cccc(Br)c2)cc1 | 125 (≈ 235 µM) | inactive | 34 | 77 | 32 (≈ 60.1 µM) | inactive | 17 |  |
| Cc1ccc(-n2c(SCc3cccc(C(F)(F)F)c3)nnc2-c2ccc(C(C)(C)C)cc2)cc1 | 180 (≈ 373 µM) | inactive | 27 | 86 | 19.5 (≈ 40.6 µM) | inactive |  | 35 |
| CC(C)(C)c1ccc(-c2nnc(SCc3cccc(C(F)(F)F)c3)n2-c2cccc(Cl)c2)cc1 | 144 (≈ 287 µM) | inactive | 25 | 78 | 80.6 (≈ 160 µM) | inactive |  | 35 |

Source: ChEMBL document CHEMBL5532686, “Azole-based compounds as potential anti-Acanthamoeba agents” (RSC Med Chem, 2024)
